From PubChem BioAssay AID2060513 (Molecular Pharmacology Branch, DTP, NCI, 2025)

Tested on: 299254-011-R-J1-PDC complex spheroids viability
Assay: Anticancer human tumor 299254-011-R-J1-PDC patient-derived melanoma cell line growth inhibition [GQUAD]
Details: for IC50: curve of first compound; for viability, T/C: stronger effect = lower value
Outline: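 Viability of tumor cells grown as complex spheroids with endothelial and stromal cells, exposed to drug combinations. Top concentration at or near clinical Cmax (else 10 microM), diluted in half-log increments.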

[1] = second compound 0.0316 µM, first compound 0.0316 µM
[2] = second compound 0.0316 µM, first compound 0.316 µM
[3] = second compound 0.1 µM, first compound 0.0316 µM
[4] = second compound 0.1 µM, first compound 0.316 µM
[5] = second compound 0.316 µM, first compound 0.0316 µM
[6] = second compound 0.316 µM, first compound 0.316 µM
[7] = second compound 1 µM, first compound 0.0316 µM
[8] = second compound 1 µM, first compound 0.316 µM
[9] = second compound 3.16 µM, first compound 0.0316 µM
[10] = second compound 3.16 µM, first compound 0.316 µM
[11] = second compound 10 µM, first compound 0.0316 µM
[12] = second compound 10 µM, first compound 0.316 µM
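Further: spheroids exposed to the agents for seven days before readout.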
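Wherever viability, T/C is given: percent viability relative to DMSO vehicle control wells = 100%.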

## COc1ccc([C@@H](O)c2cc(-c3ncnc4cc(N5CCOCC5)ccc34)c(F)cc2Cl)nn1 + CN(C)c1ccc(Nc2c3ccc(NC(=O)CCN4CCCC4)cc3nc3cc(NC(=O)CCN4CCCC4)ccc23)cc1
Second compound 0.0316 µM
  IC50: > 10 µM
Second compound 0.1 µM
  IC50: > 10 µM
Second compound 0.316 µM
  IC50: 9.57 µM
Second compound 1 µM
  IC50: > 10 µM
Second compound 3.16 µM
  IC50: > 10 µM
Second compound 10 µM
  IC50: > 10 µM
[1]
  viability, T/C: 105%
Second compound 0.0316 µM, first compound 0.1 µM
  viability, T/C: 116%
[2]
  viability, T/C: 104%
Second compound 0.0316 µM, first compound 1 µM
  viability, T/C: 96.6%
Second compound 0.0316 µM, first compound 3.16 µM
  viability, T/C: 85.9%
Second compound 0.0316 µM, first compound 10 µM
  viability, T/C: 72.5%
[3]
  viability, T/C: 105%
Second compound 0.1 µM, first compound 0.1 µM
  viability, T/C: 124%
[4]
  viability, T/C: 98.3%
Second compound 0.1 µM, first compound 1 µM
  viability, T/C: 108%
Second compound 0.1 µM, first compound 3.16 µM
  viability, T/C: 106%
Second compound 0.1 µM, first compound 10 µM
  viability, T/C: 61.6%
[5]
  viability, T/C: 96.8%
Second compound 0.316 µM, first compound 0.1 µM
  viability, T/C: 94.5%
[6]
  viability, T/C: 90%
Second compound 0.316 µM, first compound 1 µM
  viability, T/C: 106%
Second compound 0.316 µM, first compound 3.16 µM
  viability, T/C: 96.4%
Second compound 0.316 µM, first compound 10 µM
  viability, T/C: 48.1%
[7]
  viability, T/C: 124%
Second compound 1 µM, first compound 0.1 µM
  viability, T/C: 111%
[8]
  viability, T/C: 106%
Second compound 1 µM, first compound 1 µM
  viability, T/C: 106%
Second compound 1 µM, first compound 3.16 µM
  viability, T/C: 92.6%
Second compound 1 µM, first compound 10 µM
  viability, T/C: 59.1%
[9]
  viability, T/C: 96.5%
Second compound 3.16 µM, first compound 0.1 µM
  viability, T/C: 126%
[10]
  viability, T/C: 113%
Second compound 3.16 µM, first compound 1 µM
  viability, T/C: 93.1%
Second compound 3.16 µM, first compound 3.16 µM
  viability, T/C: 117%
Second compound 3.16 µM, first compound 10 µM
  viability, T/C: 68.5%
[11]
  viability, T/C: 123%
Second compound 10 µM, first compound 0.1 µM
  viability, T/C: 112%
[12]
  viability, T/C: 97.5%
Second compound 10 µM, first compound 1 µM
  viability, T/C: 106%
Second compound 10 µM, first compound 3.16 µM
  viability, T/C: 88.9%
Second compound 10 µM, first compound 10 µM
  viability, T/C: 50.8%

## Cn1ncnc1[C@H]1c2n[nH]c(=O)c3cc(F)cc(c23)N[C@@H]1c1ccc(F)cc1 + CN(C)c1ccc(Nc2c3ccc(NC(=O)CCN4CCCC4)cc3nc3cc(NC(=O)CCN4CCCC4)ccc23)cc1
Second compound 0.0316 µM
  IC50: > 0.316 µM
Second compound 0.1 µM
  IC50: > 0.316 µM
Second compound 0.316 µM
  IC50: > 0.316 µM
Second compound 1 µM
  IC50: > 0.316 µM
Second compound 3.16 µM
  IC50: > 0.316 µM
Second compound 10 µM
  IC50: > 0.316 µM
Second compound 0.0316 µM, first compound 0.000999 µM
  viability, T/C: 108%
Second compound 0.0316 µM, first compound 0.00316 µM
  viability, T/C: 101%
Second compound 0.0316 µM, first compound 0.00999 µM
  viability, T/C: 100%
[1]
  viability, T/C: 101%
Second compound 0.0316 µM, first compound 0.0999 µM
  viability, T/C: 105%
[2]
  viability, T/C: 83.8%
Second compound 0.1 µM, first compound 0.000999 µM
  viability, T/C: 90.5%
Second compound 0.1 µM, first compound 0.00316 µM
  viability, T/C: 109%
Second compound 0.1 µM, first compound 0.00999 µM
  viability, T/C: 107%
[3]
  viability, T/C: 102%
Second compound 0.1 µM, first compound 0.0999 µM
  viability, T/C: 86.9%
[4]
  viability, T/C: 87.5%
Second compound 0.316 µM, first compound 0.000999 µM
  viability, T/C: 110%
Second compound 0.316 µM, first compound 0.00316 µM
  viability, T/C: 90.3%
Second compound 0.316 µM, first compound 0.00999 µM
  viability, T/C: 100%
[5]
  viability, T/C: 106%
Second compound 0.316 µM, first compound 0.0999 µM
  viability, T/C: 93.1%
[6]
  viability, T/C: 97.8%
Second compound 1 µM, first compound 0.000999 µM
  viability, T/C: 121%
Second compound 1 µM, first compound 0.00316 µM
  viability, T/C: 84.5%
Second compound 1 µM, first compound 0.00999 µM
  viability, T/C: 98.4%
[7]
  viability, T/C: 92.8%
Second compound 1 µM, first compound 0.0999 µM
  viability, T/C: 98.6%
[8]
  viability, T/C: 92.6%
Second compound 3.16 µM, first compound 0.000999 µM
  viability, T/C: 110%
Second compound 3.16 µM, first compound 0.00316 µM
  viability, T/C: 98.2%
Second compound 3.16 µM, first compound 0.00999 µM
  viability, T/C: 101%
[9]
  viability, T/C: 105%
Second compound 3.16 µM, first compound 0.0999 µM
  viability, T/C: 112%
[10]
  viability, T/C: 100%
Second compound 10 µM, first compound 0.000999 µM
  viability, T/C: 87%
Second compound 10 µM, first compound 0.00316 µM
  viability, T/C: 85.2%
Second compound 10 µM, first compound 0.00999 µM
  viability, T/C: 89.8%
[11]
  viability, T/C: 101%
Second compound 10 µM, first compound 0.0999 µM
  viability, T/C: 93.9%
[12]
  viability, T/C: 109%
